Patent US5719179A, “Compound GEX1” (Kyowa Hakko Kogyo Co., Ltd., priority 1995, dated 1998)
Converted amounts (≈) assume the structure as drawn. Read-outs that look alike come from different tables or passages of the source.

Columns and labels:
[1] = Solubility (physicochemical data)
[2] = test system: Human Epidermic Cancer A431 Cells; experiment: Growth inhibition against Human Epidermic Cancer A431 cells (MTT); type: cell-based; details: read-out: 50% growth inhibitory concentration (IC50), A431
Experimental: Growth Inhibition against Human Epidermic Cancer A431 Cells
Human Epidermic Cancer A431 cells were put into a 96-well microtiter plate (Nunc #167008) at 3×10^3 cells/well, and cultured in a 5% CO2 incubator at 37° C. for 24 hours. Each of 3 μg/ml GEX1 compounds was stepwise diluted. Each dilution was put into each well in an amount of 50 μl. The final concentration of the resulting suspension, in the wells of the plate was controlled to be at most 1 μg/ml. The cells were further cultured in the 5% CO2 incubator at 37° C. for 72 hours. Five hours before the termination of the incubation, MTT [3-(4,5-dimethylthiazo-2-yl)-2,5-diphenyltetrazolium bromide, Sigma Co., St. Louis, Mo.] dissolved in a medium as used for the culturing was put into each well in an amount of 50 μl, the final concentration of MTT added in each well being 1 mg/ml. After the culturing, DMSO was added to each well in an amount of 150 μl, followed by vigorous stirring with a plate mixer to completely dissolve crystals of MTT-formazan. The absorbance at 550 nm was measured by using a microplate reader MTP-32 (Corona Electric Co., Ltd.). and the cell growth inhibiting activity of each GEX1 compound tested was expressed in terms of 50% growth inhibitory concentration (IC50).

[3] = JP,A, 6-22770; cited from earlier work
[4] = A-431, A431 cells, 72 hours, MTT, absorbance at 550 nm

Row | Structure (SMILES) | Solubility in chloroform [1] | Solubility in dimethylsulfoxide (DMSO) [1] | Solubility in hexane [1] | Solubility in methanol [1] | Solubility in water ([1]; water) | IC50 ([2]; A-431, 72 h) [µg/mL] | IC50 [2, 4] [µg/mL] | antitumor activity [3]
1 | COC(C(C)O)C(C)C1OC1(C)CC(C)C=CC=C(C)C1OC(CC(=O)OC2OC(C(=O)O)C(O)C(O)C2O)CCC1C (centres unmarked) [GEX1Q3] | hardly soluble | Soluble | hardly soluble | Soluble | Soluble | 0.02 (≈ 0.0325 µM) |  | 
2 | COC(C(C)O)C(C)C1OC1(C)CC(C)C=CC=C(C)C1OC(CC(=O)O)CC(O)C1C (centres unmarked) [GEX1Q1] | hardly soluble | Soluble | hardly soluble | Soluble |  |  | 0.42 (≈ 0.924 µM) | 
3 | COC(C(C)O)C(C)C1OC1(C)CC(C)C=CC=C(CO)C1OC(CC(=O)O)CCC1C (centres unmarked) [GEX1Q4] | hardly soluble | Soluble | hardly soluble | Soluble |  | 0.45 (≈ 0.99 µM) |  | 
4 | CC(=CC=CC(C)CC1(C)OC1C(C)C(O)C(C)O)C1OC(CC(=O)O)CCC1C (centres unmarked) [GEX1Q5] |  | Soluble | hardly soluble | Soluble |  |  | 0.0053 (≈ 0.0125 µM) | 
5 | COC(C(C)O)C(C)C1OC1(C)CC(C)(O)C=CC=C(C)C1OC(CC(=O)O)CCC1C (centres unmarked) [GEX1Q2] | hardly soluble | Soluble | hardly soluble | Soluble |  | 0.23 (≈ 0.506 µM) |  | 
6 | COC(C(C)O)C(C)C1OC1(C)CC(C)C=CC=C(C)C1OC(CC(=O)O)CCC1C (centres unmarked) [TAN-1609] |  |  |  |  |  |  |  | has antitumor activity
